Reference: patent US20240189278A1, “NOVEL COMPOUNDS AND METHODS FOR INCREASING KLOTHO GENE EXPRESSION” (Klotho Therapeutics, Inc., priority 2017, published 2024)

What was measured:
[1] = test system: Klotho gene expression; assay: Luciferase reporter assay to evaluate Klotho gene expression changes; assay type: cell-based; conditions: overnight incubation, luciferase luminescence
Procedure: Table 2. Luciferase Reporter Assay to Evaluate Klotho Gene Expression Changes
HEK293 cells/pKlotho_Luc in suspension (20 μl/well, density 0.25×10^6 cells/ml) were dispensed into assay-ready 384-well tissue culture treated plates (plates (BD BioCoat Poly-D-Lys coated, Cat.354661) preloaded with 1000× stock of test compounds in DMSO (20 nL/well, 10 concentration points, 3× dilutions from 20 uM to 0.001 uM). Growth medium: DMEM, 1% FBS, Pen/Strep, 600 ug/ml G418. Negative control: DMSO. Positive control: 2 uM Compound H from King, et. al. Biochem. J. (2012) 441, 453-461. Cells were incubated in CO2 incubator overnight. At the end of the incubation time, 20 ul/well of the luciferase assay solution (Steady-Luc Firefly HTS Assay Biotium, Cat 30028) were added to the plate and mixed on a VibraTranslator (Union Scientific). Plates were incubated for 5 min at 25° C. Steady glow luminescence signal was read using a BMG Labtech PHERAstar FSX reader.

[2] = test system: aged male Wistar rats; assay: Aged rat efficacy model, blood pressure by tail-cuff method; assay type: in vivo
Procedure: The aim of the study was to assess the efficacy of test compound in improving physiologic parameters in aged rats such as blood pressure values. The experiment included daily repeated administrations of the test compound for 14 consecutive days and follow up observations within a […] post-dosing period. Body weight (BWt) were monitored daily during the dosing period and twice a week during the post-dosing period. Blood pressure (BP) was measured on 0, 7th, 14th, 21s t and 28th day of the study. Study design, animal selection, handling and treatment were all in accordance with the CROs efficacy study protocols and Standard Operation Procedure, and the Animal Care Guidelines.
Fifteen aged male Wistar rats (22.5 months old; initial body weights ranged from 474.8 g to 672.4 g with an average body weight across the groups of 540.8 g) were randomized into two groups by body weight and systolic blood pressure: 11 animals distributed to compound 49-treated group and 4 animals—to vehicle-treated group. […]
Blood pressure was measured by the Tail-Cuff Method using the Coda Non-invasive Blood-Pressure System. Individual body weights and relative changes in body weight (compared to the appropriate weight on Day 0) were recorded.

[3] = Homo sapiens, HEK293, HEK293 cells/pKlotho_Luc

| EC50 [1, 3] [nM] | EC50 ([1]; HEK293 cells/pKlotho_Luc) [nM] | Compound | Activation, % ([1]; HEK293 cells/pKlotho_Luc) [%] | Systolic blood pressure within the treated group during the study ([2]; 50 mg/kg PO daily for 14 days, 28-day study) | Systolic blood pressure, treated group vs vehicle-treated group ([2]; 50 mg/kg PO daily, Day 14) |
| --- | --- | --- | --- | --- | --- |
| 70 |  | C1=C(CCNc2ncnc3[nH]ccc23)CCCCC1 [Compound 2, N-[2-(cyclohept-1-en-1-yl)ethyl]-7H-pyrrolo[2,3-d]pyrimidin-4-amine] | 94 |  |  |
| 120 |  | Fc1ccccc1-n1ncc2c(NCCC3=CCCCC3)ncnc21 [Compound 4] | 105 |  |  |
| 180 |  | C1=C(CCNc2ncnc3sccc23)CCCCC1 [Compound 9] | 81 |  |  |
| 210 |  | Nc1c(NCCC2=CCCCC2)ncnc1-n1cccn1 [Compound 11] | 125 |  |  |
| 210 |  | Cc1csc2ncnc(NCCC3=CCCCCC3)c12 [Compound 12] | 98 |  |  |
| 260 |  | N#CCCn1ncc2c(NCCC3=CCCCCC3)ncnc21 [Compound 14] | 122 |  |  |
| 270 |  | C1=C(CCNc2ncnc3c2cnn3-c2ccccc2)CCCC1 [Compound 15] | 203 |  |  |
| 380 |  | CN(CCC1CCCCC1)c1ncnc2c1ncn2C1CC1 [Compound 17] | 114 |  |  |
| 450 |  | Cc1cc2c(NCCC3=CCCCCC3)ncnc2s1 [Compound 18] | 48 |  |  |
| 500 |  | C1=CCC(CCNc2ncnc3c2ncn3C2CC2)CC1 (stereo not drawn) [Compound 19] | 152 |  |  |
| 680 |  | Cc1cc2c(NCCC3=CCCCC3)ncnc2s1 [Compound 21] | 133 |  |  |
| 850 |  | C1=C(CCNc2ncnc3sccc23)CCCC1 [Compound 23] | 133 |  |  |
| 920 |  | CCn1ncc2c(NCCC3CC=CCC3)ncnc21 (stereo not drawn) [Compound 26] | 121 |  |  |
| 1000 |  | CCC1(CC)CCCN(c2ncnc3c2ncn3C2CC2)CC1 [Compound 28] | 101 |  |  |
| 1100 |  | C1=C(CCNc2ncnc3scnc23)CCCC1 [Compound 29] | 103 |  |  |
| 1100 |  | c1nc(NCCC2CCCCC2)c2ncn(C3CC3)c2n1 [Compound 31] | 109 |  |  |
| 380 |  | c1nc(NCC2CCCCC2)c2ncn(C3CC3)c2n1 [Compound 33] | 89 |  |  |
| 2000 |  | Clc1cccc(CNc2ncnc3c2ncn3C2CC2)c1 [Compound 34] | 102 |  |  |
| 70 |  | C1=C(CCNc2ncnc3c2ncn3C2CC2)CCCC1 [Compound 37] | 103 |  |  |
| 340 |  | C1=C(CCNc2ncnc3c2ncn3C2CC2)CCCCC1 [Compound 38] | 105 |  |  |
| 3600 |  | CC1(CNc2ncnc3c2ncn3C2CC2)CCCCC1 [Compound 39] | 77 |  |  |
| 2900 |  | CC1(CNc2ncnc3c2ncn3C2CC2)CCCC1 [Compound 40] | 89 |  |  |
| > 30000 |  | c1ccc([C@@H]2C[C@H]2Nc2ncnc3c2ncn3C2CC2)cc1 [Compound 41] |  |  |  |
| 23800 |  | CC(C)(CNc1ncnc2c1ncn2C1CC1)C1=CCCCC1 [Compound 44] | 58 |  |  |
| 1700 |  | c1nc(NCC23CCC(CC2)CC3)c2ncn(C3CC3)c2n1 [Compound 46] | 86 |  |  |
| 900 |  | FC1(CNc2ncnc3c2ncn3C2CC2)CCCCC1 [Compound 47] | 86 |  |  |
|  | 100 | C1=CC[C@@H](CNc2ncnc3c2ncn3C2CC2)CC1 [Compound 49] | 90 | considerable decrease | Significant difference |

The next lines start with the compound.

| Compound | EC50 [1, 3] [nM] | EC50 ([1]; HEK293 cells/pKlotho_Luc) [nM] | Activation, % ([1]; HEK293 cells/pKlotho_Luc) [%] | Systolic blood pressure within the treated group during the study ([2]; 50 mg/kg PO daily for 14 days, 28-day study) | Systolic blood pressure, treated group vs vehicle-treated group ([2]; 50 mg/kg PO daily, Day 14) |
| --- | --- | --- | --- | --- | --- |
| C1=CCC(CNc2ncnc3c2ncn3C2CC2)CC1 (stereo not drawn) [Compound 1, N-[(cyclohex-3-en-1-yl)methyl]-9-cyclopropyl-9H-purin-6-amine] | 60 |  | 149 |  |  |
| C1=C(CCNc2cc(N3CCCC3)ncn2)CCCC1 [Compound 3] | 100 |  | 138 |  |  |
| Fc1ccccc1-n1ncc2c(NCCC3=CCCCCC3)ncnc21 [Compound 5] | 120 |  | 61 |  |  |
| C1=C(CCNc2cc(N3CCCCC3)ncn2)CCCC1 [Compound 6] | 140 |  | 98 |  |  |
| C1=C(CCNc2ncnc3[nH]ccc23)CCCC1 [Compound 7] | 160 |  | 150 |  |  |
| Cc1csc2ncnc(NCCC3=CCCCC3)c12 [Compound 8] | 160 |  | 145 |  |  |
| Nc1c(NCCC2=CCCCCC2)ncnc1-n1cccn1 [Compound 10] | 200 |  | 98 |  |  |
| Fc1cccc2ncnc(NCCC3=CCCCC3)c12 [Compound 13] | 250 |  | 86 |  |  |
| CCn1ncc2c(NCCC3=CCCCC3)ncnc21 [Compound 16] | 370 |  | 151 |  |  |
| N#CCCn1ncc2c(NCCC3=CCCCC3)ncnc21 [Compound 20] | 600 |  | 120 |  |  |
| C1=C(CCNc2ncnc3c2cnn3-c2ccccc2)CCCCC1 [Compound 22] | 770 |  | 96 |  |  |
| C1=C(CCNc2ncnc3ccsc23)CCCCC1 [Compound 24] | 880 |  | 122 |  |  |
| C1=C(CCNc2ncnc3scnc23)CCCCC1 [Compound 27] | 920 |  | 101 |  |  |
| c1nc(NCCC2CCCC2)c2ncn(C3CC3)c2n1 [Compound 30] | 1200 |  | 87 |  |  |
| CC(C)CCNc1ncnc2c1ncn2C1CC1 [Compound 32] | 730 |  | 77 |  |  |
| CC(C)CNc1ncnc2c1ncn2C1CC1 [Compound 35] | 1500 |  | 40 |  |  |
| c1nc(NCC2CCC2)c2ncn(C3CC3)c2n1 [Compound 36] | 830 |  | 68 |  |  |
| C1=C(CCNc2ncnc3c2ncn3C2CC2)CCC1 [Compound 42] | 620 |  | 79 |  |  |
| Clc1ccc(CNc2ncnc3c2ncn3C2CC2)cc1Cl [Compound 43] | > 30000 |  |  |  |  |
| CC1(C)CCC(CNc2ncnc3c2ncn3C2CC2)CC1 [Compound 45] | 13100 |  | 59 |  |  |
| C1=CC[C@@H](CNc2ncnc3c2ncn3C2CC2)CC1 [Compound 48] | 160 |  | 86 |  |  |
